# Measured values as given in ChEMBL document CHEMBL1165930, “The anticancer activity of 3- and 10-bromofascaplysins is mediated by caspase-8, -9, -3-dependent apoptosis” (Bioorg Med Chem, 2010).
# The source made the active and inactive calls. The calls are words filed in the database; no cut-off is given here.
# Experiments:
# HL-60 [1] = assay: Induction of apoptosis in human HL60 cells assessed as decrease in Bid protein level at 500 nM after 24 hrs by Western blot analysis; type: functional, cell-based
# [2] = biological target: Transcription factor Jun (Mus musculus) (UniProt P05627); assay: Induction of AP1-mediated transcriptional activity in mouse JB6 Cl41 cells at 15 to 500 nM by luciferase reporter gene assay; type: cell-based
# Chain of Transcription factor Jun (Mus musculus) (P05627 whole entry): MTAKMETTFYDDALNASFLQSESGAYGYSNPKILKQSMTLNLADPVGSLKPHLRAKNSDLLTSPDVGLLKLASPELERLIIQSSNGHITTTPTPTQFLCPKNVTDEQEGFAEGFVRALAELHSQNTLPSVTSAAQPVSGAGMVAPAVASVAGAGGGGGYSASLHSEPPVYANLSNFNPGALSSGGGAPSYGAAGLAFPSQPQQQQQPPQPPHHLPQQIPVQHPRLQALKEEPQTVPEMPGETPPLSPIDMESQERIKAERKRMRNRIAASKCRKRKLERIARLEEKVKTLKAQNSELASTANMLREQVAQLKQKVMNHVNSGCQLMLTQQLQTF
# JB6 Cl41 [3] = assay: Effect on EGF-stimulated proliferation of mouse JB6 Cl41 cells at 125 nM after 22 hrs by MTS assay; type: functional, cell-based
# THP-1 [4] = assay: Induction of apoptosis in human THP1 cells assessed as early apoptotic cells at 1000 nM after 24 hrs by FITC-conjugated annexin V and propidium iodide staining-based flow cytometry; type: functional
# HL-60 [5] = assay: Induction of apoptosis in human HL60 cells assessed as early apoptotic cells at 50 nM after 24 hrs by FITC-conjugated annexin V and propidium iodide staining-based flow cytometry; type: functional
# HL-60 [6] = assay: Induction of apoptosis in human HL60 cells assessed as early apoptotic cells at 500 to 1000 nM after 24 hrs by FITC-conjugated annexin V and propidium iodide staining-based flow cytometry; type: functional
# HL-60 [7] = assay: Induction of apoptosis in human HL60 cells assessed as decrease in procaspase-3 level at 250 nM after 24 hrs by Western blot analysis; type: functional, cell-based
# HL-60 [8] = assay: Induction of apoptosis in human HL60 cells assessed as decrease in PARP level at 250 nM after 24 hrs by Western blot analysis; type: functional, cell-based
# [9] = Effect on EGF-stimulated proliferation of JNK1-expressing mouse JB6 Cl41 cells assessed as cell death at 250 nM after 22 hrs by MTS assay; type: functional
# THP-1 [10] = assay: Cytotoxicity against human THP1 cells after 22 hrs by MTS assay; type: functional, cell-based; conditions: THP-1, 22 h
# THP-1 [11] = assay: Induction of apoptosis in human THP1 cells assessed as non-viable necrotic cells at 500 nM after 24 hrs by FITC-conjugated annexin V and propidium iodide staining-based flow cytometry; type: functional
# THP-1 [12] = assay: Induction of apoptosis in human THP1 cells assessed as viable cells at 2000 nM after 24 hrs by FITC-conjugated annexin V and propidium iodide staining-based flow cytometry; type: functional; conditions: THP-1, 24 h, read-out: Activity
# THP-1 [13] = assay: Anticancer activity in human THP1 cells assessed as inhibition of colony formation by anchorage-independent soft agar assay; type: functional
# HL-60 [14] = assay: Selectivity ratio of INCC50 for human HL60 cells to IC50 for human HL60 cells; type: functional
# [15] = Effect on EGF-stimulated proliferation of mouse JB6 Cl41 cells assessed as cell viability at 250 nM after 22 hrs by MTS assay; type: functional; conditions: JB6 Cl41, 22 h, read-out: Activity
# HL-60 [16] = assay: Induction of apoptosis in human HL60 cells assessed as change in mitochondrial permeability at 500 nM after 24 hrs by DiOC6 staining-based flow cytometry (RVb = 90.3%); type: functional
# JB6 Cl41 [17] = assay: Effect on EGF-stimulated proliferation of p38-expressing mouse JB6 Cl41 cells at 125 nM after 22 hrs by MTS assay; type: functional, cell-based
# [18] = Effect on EGF-stimulated proliferation of p38-expressing mouse JB6 Cl41 cells assessed as cell viability at 250 nM after 22 hrs by MTS assay; type: functional; conditions: JB6 Cl41, 22 h, read-out: Activity
# [19] = Effect on EGF-stimulated proliferation of ERK2-expressing mouse JB6 Cl41 cells assessed as cell viability at 125 nM after 22 hrs by MTS assay; type: functional; conditions: JB6 Cl41, 22 h, read-out: Activity
# THP-1 [20] = assay: Selectivity ratio of INCC50 for human THP1 cells to IC50 for human THP1 cells; type: functional
# THP-1 [21] = assay: Induction of apoptosis in human THP1 cells assessed as late apoptotic cells at 1000 nM after 24 hrs by FITC-conjugated annexin V and propidium iodide staining-based flow cytometry; type: functional
# MDA-MB-231 = assay: Cytotoxicity against human MDA-MB-231 cells after 22 hrs by MTS assay; type: functional, cell-based; conditions: MDA-MB-231, 22 h
# HL-60 [22] = assay: Induction of apoptosis in human HL60 cells assessed as decrease in procaspase-8 level at 500 nM after 24 hrs by Western blot analysis; type: functional, cell-based
# HeLa = assay: Anticancer activity in human HeLa cells assessed as inhibition of colony formation by anchorage-independent soft agar assay; type: functional
# [23] = biological target: Cellular tumor antigen p53 (Mus musculus) (UniProt P02340); assay: Inhibition of p53-mediated transcriptional activity in mouse JB6 Cl41 cells at 375 to 500 nM after 6 hrs by luciferase reporter gene assay relative to control; type: cell-based
# Chain of Cellular tumor antigen p53 (Mus musculus) (P02340 whole entry): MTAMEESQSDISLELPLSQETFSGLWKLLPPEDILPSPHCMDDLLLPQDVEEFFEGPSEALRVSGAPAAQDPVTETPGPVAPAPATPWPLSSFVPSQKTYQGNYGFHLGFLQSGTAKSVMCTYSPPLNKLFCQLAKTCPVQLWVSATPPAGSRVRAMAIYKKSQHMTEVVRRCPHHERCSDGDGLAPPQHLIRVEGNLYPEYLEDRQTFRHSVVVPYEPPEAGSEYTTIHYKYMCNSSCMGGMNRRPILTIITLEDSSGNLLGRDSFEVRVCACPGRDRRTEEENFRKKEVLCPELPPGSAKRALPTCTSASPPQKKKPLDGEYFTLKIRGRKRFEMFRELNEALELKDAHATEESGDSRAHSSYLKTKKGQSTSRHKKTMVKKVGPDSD
# THP-1 [24] = assay: Induction of apoptosis in human THP1 cells assessed as non-viable necrotic cells at 2000 nM after 24 hrs by FITC-conjugated annexin V and propidium iodide staining-based flow cytometry; type: functional
# HL-60 [25] = assay: Induction of apoptosis in human HL60 cells assessed as decrease in PARP level at 500 nM after 24 hrs by Western blot analysis; type: functional, cell-based
# HL-60 [26] = assay: Induction of apoptosis in human HL60 cells assessed as early apoptotic cells at 250 nM after 24 hrs by FITC-conjugated annexin V and propidium iodide staining-based flow cytometry; type: functional
# THP-1 [27] = assay: Induction of apoptosis in human THP1 cells assessed as viable cells at 500 nM after 24 hrs by FITC-conjugated annexin V and propidium iodide staining-based flow cytometry; type: functional; conditions: THP-1, 24 h, read-out: Activity
# [28] = Selectivity ratio of INCC50 for mouse JB6 Cl41 cells to IC50 for mouse JB6 Cl41 cells; type: functional
# THP-1 [29] = assay: Induction of apoptosis in human THP1 cells assessed as late apoptotic cells at 500 nM after 24 hrs by FITC-conjugated annexin V and propidium iodide staining-based flow cytometry; type: functional
# [30] = Inhibition of EGF-stimulated viability of mouse JB6 Cl41 cells after 22 hrs by MTS assay; type: functional, cell-based; conditions: JB6 Cl41, 22 h
smiles,measurement,setting,value
O=C1c2ccc(Br)cc2-[n+]2ccc3c([nH]c4ccccc43)c21.[Cl-],inhibition,HL-60 [1],Active
same,Activity,[2],tde
same,Activity,JB6 Cl41 [3],inactive
same,Activity,THP-1 [4],17.9%
same,Activity,HL-60 [5],5%
same,Activity,HL-60 [6],20%
same,inhibition,HL-60 [7],Active
same,inhibition,HL-60 [8],Active
same,Activity,[9],100%
same,IC50,THP-1 [10],521 nM
same,Activity,THP-1 [11],6.4%
same,viability at 2 µM,THP-1 [12],25.8%
same,INCC50,THP-1 [13],59.7 nM
same,Selectivity ratio,HL-60 [14],5.3
same,viability at 0.25 µM,[15],60%
same,Activity,HL-60 [16],30.6%
same,Activity,JB6 Cl41 [17],inactive
same,viability at 0.25 µM,[18],40%
same,viability at 0.125 µM,[19],30%
same,Selectivity ratio,THP-1 [20],8.7
same,Activity,THP-1 [21],23.2%
same,IC50,MDA-MB-231,575 nM
same,inhibition,HL-60 [22],Active
same,INCC50,HeLa,108.1 nM
same,inhibition,[23],30%
same,Activity,THP-1 [24],23.5%
same,inhibition,HL-60 [25],Active
same,Activity,HL-60 [26],40%
same,viability at 0.5 µM,THP-1 [27],68.2%
same,Selectivity ratio,[28],2.7
same,Activity,THP-1 [29],12.4%
same,IC50,[30],284 nM
